Here are results for 1 molecule from PMC12435401 (Chemistry & Biodiversity, 2025).

The target in this test is acetylcholinesterase (AChE) (Electrophorus electricus, UniProt O42275). The test is described as follows: Ellman's assay with AChE isolated from Electrophorus electricus. Type of test: biochemical.
Chain of acetylcholinesterase (AChE) (O42275 24-633): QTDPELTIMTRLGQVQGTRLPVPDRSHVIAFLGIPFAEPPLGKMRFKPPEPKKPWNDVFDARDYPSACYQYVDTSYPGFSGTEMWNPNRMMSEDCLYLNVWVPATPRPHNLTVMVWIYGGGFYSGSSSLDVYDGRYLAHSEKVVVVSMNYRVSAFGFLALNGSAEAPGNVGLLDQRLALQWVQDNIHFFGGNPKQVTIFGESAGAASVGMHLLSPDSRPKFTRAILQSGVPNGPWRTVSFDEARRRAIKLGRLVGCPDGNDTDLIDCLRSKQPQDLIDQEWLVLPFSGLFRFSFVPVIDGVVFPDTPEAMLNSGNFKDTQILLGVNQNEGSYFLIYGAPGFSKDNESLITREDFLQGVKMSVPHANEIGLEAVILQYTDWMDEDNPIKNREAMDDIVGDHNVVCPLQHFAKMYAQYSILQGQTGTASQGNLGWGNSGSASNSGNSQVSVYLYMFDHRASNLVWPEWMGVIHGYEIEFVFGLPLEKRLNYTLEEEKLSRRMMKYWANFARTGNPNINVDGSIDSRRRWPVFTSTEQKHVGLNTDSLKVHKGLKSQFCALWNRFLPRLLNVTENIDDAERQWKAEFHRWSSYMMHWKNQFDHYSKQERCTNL

In the case of `C[C@@H]1CC(=O)O[C@H]2C[C@@]3(C)[C@@H]4CC[C@H]5C(C)(C)C(=O)CC[C@@]56C[C@@]46CC[C@]3(C)[C@@H]12` [compound 6], the concentration for half-maximal inhibition (IC50) was determined as 53.5 ± 2.53 µM.

The IC50 is the concentration at which inhibition is half-maximal.
